1 compound from patent US9089507B2 (priority 2006, dated 2015) can be followed below.

The subject of one data set is B. anthracis spores. The following applies: mouse, in vivo.
For data set [1] the following is noted: female, CD-1, mouse, in vivo, 32 mg/kg.
A short description of another data set: in vivo. The following applies: female, CD-1, mouse, 32 mg/kg.
A further data set relates to B. anthracis. As to the kind of experiment: microbe, parasite or virus in culture. The data set is classed as cell-based, Bacillus anthracis.

≈ marks a conversion by molar mass, not a printed value. Where two headings read alike, the source gives them in different places.

As to `CN[C@H](CC(C)C)C(=O)N[C@H]1C(=O)N[C@@H](CC(N)=O)C(=O)N[C@H]2C(=O)N[C@H]3C(=O)N[C@H](C(=O)N[C@H](C(=O)O)c4cc(O)cc(O)c4-c4cc3ccc4O)[C@H](O[C@H]3C[C@](C)(N)[C@@H](O)[C@H](C)O3)c3ccc(c(Cl)c3)Oc3cc2cc(c3O[C@@H]2O[C@H](CO)[C@@H](O)[C@H](O)[C@H]2O[C@H]2C[C@](C)(NCc3ccc(-c4ccc(Cl)cc4)cc3)[C@@H](O)[C@H](C)O2)Oc2ccc(cc2Cl)[C@H]1O` [Oritavancin, N-(4-(4-chlorophenyl)benzyl)A82846B], the “spore/tissue load at the termination of the study” value in the data set with B. anthracis spores is ≤ 5×10^4 CFU/g tissue. The “time-to-peak (Tmax)” value in data set [1] (ip) is reported as 4 h. Moreover, in data set [1] (iv), the “time plasma concentration remained above the MIC for the Ames strain” value was 24 to 48 h and the “time-to-peak (Tmax)” value is listed as 0.25 h. In addition, in “in vivo” (ip), the exposure (AUC) was 840 µg·h/mL and the concentration peaked (Cmax) at 95 µg/mL. In the data set “in vivo” (iv), this compound gave an area under the curve (AUC) of 950 µg·h/mL and a maximum concentration (Cmax) of 270 µg/mL. In the data set on B. anthracis, the “MIC90 with polysorbate-80 lower than MIC90 in the absence of polysorbate-80” value was 16 fold. This compound also registered an MIC90 with B. anthracis (Bacillus anthracis) of 0.12 µg/mL (≈ 0.0669 µM).

As a reminder, the AUC is concentration integrated over time. The Cmax is the highest concentration seen after dosing.
